Key:
[1] = Magri et al. (1988); cited from earlier work
HSA = HSA (Homo sapiens, UniProt P02768); experiment: Effect of antioxidants on HSA dimerization at acidic pH (SDS-PAGE, reducing and non-reducing); conditions: acidification of commercial HSA to pH 3.0-3.3; compared with ascorbic acid, L-cysteine, sodium thiosulfate
Protocol: This experiment evaluated a number of conditions to maintain HSA in the formulation, primarily in the monomeric form.
Evaluation of different antioxidants with undefatted and defatted acidic HSA preparations. • The following reducing reagents were tested: ascorbic acid, L-cysteine, dithioerythritol (DTE) and dithiothreitol (DTT), sodium metabisulfite, sodium thiosulfate, and thioacetic acid. • Different preparations of HSA (10%), including HSA-A, HSA-B, and HSA-D, were treated with antioxidant at different concentrations, ranging from 2 to 40 mM. • The HSA solutions were incubated at 2-8° C. for up to a month, and prevention of dimerization was analyzed by SDS-PAGE under both reducing and non-reducing conditions.
Analysis of the effect of antioxidant on prevention of HSA dimerization at low pH. • 5.
3.3 Add 80 μL of antioxidant solution to the 1.92 mL of HSA-A (20%) in 2×9′ (18) the 15-mL conical tubes as follows:
• Sample 9 will be the control sample for either HSA-B or HSA-D, untreated. • 3.4 Incubate the samples at 2-8° C. for at least 4 h. • 3.5 In the meantime, • 3.5.1 Prepare material for acidification and defatting of HSA. • 3.5.2 Prepare another 2×9 (18) set of 15-mL conical centrifuge tubes (sterile). […]

[2] = Solubility of paclitaxel in aqueous ethanol saline solution (visual turbidity); format: physicochemical
Protocol: Reagents Preparation • 1. […] A 20-ml physiological saline stock solution was also prepared in a small bottle (or flask) and designated the 1× saline stock solution.
4. The tubes were incubated at room temperature and observed at 0 h, 1 h and 3 h for precipitate formation. The results were recorded as + or − turbidity formation.

synoviocytes = conditions: in vitro, cited from earlier work
collagenase = conditions: 10^−7 M paclitaxel, chondrocytes stimulated by tumor necrosis factor and interleukin-1; cited from earlier work
[3] = target: T1, human serum albumin (HSA) (Homo sapiens, UniProt P02768); experiment: Paclitaxel binding to HSA: ultrafiltration (10 kDa), free and total Ptx by ELISA and/or reverse-phase HPLC; set-up: purchased Desert Biologicals, Phoenix, Ariz; conditions: pH 7.1
Protocol: • 1. […] Procedure • 1. […] Saline in water could also be added to the test tubes so that all the test tubes have substantially identical sodium chloride concentrations. • 3. […] The test tubes were covered with a piece of parafilm or in stoppered serum bottles and then incubated at room temperature, with occasional shaking (2 to 3 times). • 6. At 0 hr, 3 hr, and/or 18/24 hr of incubation, the samples were observed qualitatively for precipitate formation. • 7. At the end of the 18-24 hr incubation period, the reaction mixtures were analyzed for turbidity at 600 nm using a Shimadzu 160U UV/visible spectrophotometer (NBI Track #F1174). • 8. […] Analytical methods.
Procedure • 1. […] The test tubes were covered with a parafilm and then incubated at room temperature, with occasional shaking. Alternatively, the mixtures were prepared in stoppered serum vials. • 6.
This unbound fraction can be quantitated by reverse phase HPLC, and/or ELISA.

[4] = target: T1, human serum albumin (HSA); experiment: Recovery of soluble Ptx and binding to HSA by liquid scintillation counting (radioactive Ptx; R, S, F fractions)
[5] = mice, co-administered P-glycoprotein blocker; cited from earlier work

T1 sequence (P02768 25-609): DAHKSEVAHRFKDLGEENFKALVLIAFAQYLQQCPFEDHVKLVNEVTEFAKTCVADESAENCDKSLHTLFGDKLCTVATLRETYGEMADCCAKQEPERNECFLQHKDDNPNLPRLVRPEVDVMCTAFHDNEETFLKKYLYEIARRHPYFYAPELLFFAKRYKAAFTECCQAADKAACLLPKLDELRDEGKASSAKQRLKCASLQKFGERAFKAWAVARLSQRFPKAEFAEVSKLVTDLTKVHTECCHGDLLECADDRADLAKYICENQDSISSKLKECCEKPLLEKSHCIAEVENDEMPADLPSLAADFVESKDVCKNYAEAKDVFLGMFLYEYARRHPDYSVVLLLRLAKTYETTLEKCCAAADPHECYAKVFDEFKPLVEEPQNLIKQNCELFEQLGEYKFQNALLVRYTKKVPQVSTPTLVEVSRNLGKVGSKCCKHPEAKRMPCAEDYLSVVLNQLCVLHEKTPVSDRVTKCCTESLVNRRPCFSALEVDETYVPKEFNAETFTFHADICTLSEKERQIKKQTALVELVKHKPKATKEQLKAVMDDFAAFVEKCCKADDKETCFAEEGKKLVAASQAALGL
Sequence of HSA (P02768 25-609): as above

In the case of `CC(=O)O[C@H]1C(=O)[C@@]2(C)[C@H]([C@H](OC(=O)c3ccccc3)[C@]3(O)C[C@H](OC(=O)[C@H](O[Si](C)(C)C(C)(C)C)[C@@H](NC(=O)c4ccccc4)c4ccccc4)C(C)=C1C3(C)C)[C@]1(OC(C)=O)CO[C@@H]1C[C@@H]2O` [2′-(t-butyldimethylsilyl)taxol], the “in vivo activity compared with paclitaxel” value [1] is given as “essentially inactive”.

For `CC(=O)O[C@H]1C(=O)[C@@]2(C)[C@H]([C@H](OC(=O)c3ccccc3)[C@]3(O)C[C@H](OC(=O)[C@H](OC(=O)CCC(=O)O)[C@@H](NC(=O)c4ccccc4)c4ccccc4)C(C)=C1C3(C)C)[C@]1(OC(C)=O)CO[C@@H]1C[C@@H]2O` [2′-succinyltaxol], the “in vivo activity compared with paclitaxel” value [1] is listed as “decreased in vivo activity”.

With `O[C@H](CS)[C@@H](O)CS` [DTE, dithioerythritol] the “effectiveness in minimizing the HSA dimerization reaction” value (HSA) was “most effective”.

For `CC(=O)O[C@H]1C(=O)[C@@]2(C)[C@H]([C@H](OC(=O)c3ccccc3)[C@]3(O)C[C@H](OC(=O)[C@H](O)[C@@H](NC(=O)c4ccccc4)c4ccccc4)C(C)=C1C3(C)C)[C@]1(OC(C)=O)CO[C@@H]1C[C@@H]2O` [Ptx, paclitaxel], the “time until paclitaxel solutions turned cloudy” value ([2]; 500 μg/ml paclitaxel, 20% ethanol or less, room temperature) was no more than 5 min, the “paclitaxel concentration at which solutions remained clear for at least 3 hours” value ([2]; aqueous ethanol saline solutions, room temperature) was no more than 50 µg/mL and the “paclitaxel concentration at which clear solutions were obtained” value ([2]; aqueous ethanol solutions (5% to 25%), after a 1-h incubation at room temperature) was “less than 100 μg/ml”. The “solubility of paclitaxel at 500 μg/ml” value ([2]; saline solution containing up to 25% ethanol, after 1 hr) was “not soluble”, the “concentration cytotoxic to the synoviocytes” value (synoviocytes) was 10^−6 to 10^−5 M and the “concentration inhibiting proliferation of synoviocytes and inducing apoptosis” value (synoviocytes; concentrations as low as) was 10^−7 M. For the same compound, the “reduction of collagenase expression” value (collagenase) was “over 50%”, the recovery at 50 μg/mL ([3]; defatted human serum albumin (HSA) solution) was 73% and the recovery at 50 μg/mL ([3]; non-defatted human serum albumin (HSA) solution) was 89%. The “chemical stability of Ptx in alkaline pH formulations” value [4] was “poor”.

In the case of `C/C=C/C[C@@H](C)C(=O)[C@H]1C(=O)N[C@@H](C(C)C)C(=O)N(C)CC(=O)N(C)[C@@H](CC(C)C)C(=O)N[C@@H](C(C)C)C(=O)N(C)[C@@H](CC(C)C)C(=O)N[C@@H](C)C(=O)N[C@H](C)C(=O)N(C)[C@@H](CC(C)C)C(=O)N(C)[C@@H](CC(C)C)C(=O)N(C)[C@@H](C(C)C)C(=O)N1C` [SDZ PSC 833], the “increase in oral bioavailability of paclitaxel” value [5] is listed as 10 fold.

From patent US20050282734A1 (priority 1998, published 2005)
